Data reported in patent publication EP1058679B1.

Settings: from CC[Si](CC)(CC)O[C@@H](CC(=O)O)C(C)(C)C(=O)[C@H](C)[C@@H](OC(=O)OCC(Cl)(Cl)Cl)[C@@H](C)CCC/C(C)=C\C[C@H](O)/C(C)=C/c1csc(C)n1; ester bond; 2,4,6-trichlorobenzoyl chloride, Et3N, DMAP; toluene; 0.79 mM; 25.0 °C; 3.5 h

With `CC[Si](CC)(CC)O[C@H]1CC(=O)O[C@H](/C(C)=C/c2csc(C)n2)C/C=C(/C)CCC[C@H](C)[C@H](OC(=O)OCC(Cl)(Cl)Cl)[C@@H](C)C(=O)C1(C)C` as the compound, how does the ring closure, yield of all isomers read?
Its ring closure, yield of all isomers is 78%.
